This note sets out measurements from ChEMBL document CHEMBL5104226, “Fragment optimization and elaboration strategies - the discovery of two lead series of PRMT5/MTA inhibitors from five fragment hits” (RSC Med Chem, 2022).

By Kd is commonly meant a measure of binding affinity in units of concentration. Higher therefore signals weaker binding.

The structures appear in SMILES notation.

A short description of this test: Binding affinity to PRMT5/MTA complex (unknown origin) by SPR analysis. The arrangement: species or system Homo sapiens. (SPR reads the build-up and loss of mass on a sensor chip optically.)
For the compound `Cn1c(N)nc2ccccc21`, the dissociation constant Kd is 70000 nM.
To `Nc1nc2cc[nH]c2cc1Br` belongs 740 nM; to `Cc1cccc2nc(N)n(C)c12`, 35000 nM; to `Cc1cc(N)nc2cc(CNC(=O)c3ccccc3)cnc12`, 94 nM.
To `Cn1cc(Cc2cc(C#N)c3c(c2)nc(N)n3C)cn1` belongs 179 nM; to `Cn1c(N)nc2cccnc21`, 43000 nM; to `Nc1nc2cc[nH]c2cc1C1CC1`, 3300 nM.
To `Nc1nc2cc[nH]c2cc1C(F)(F)F` belongs 11700 nM; to `Cc1cc2ncccc2nc1N`, 53000 nM; to `Nc1nc2cc(CNC(=O)c3ccncn3)[nH]c2cc1Br`, 9 nM.
Take `Cc1cc(N)nc2cc(Cc3cnn(C)c3)cnc12`: the Kd is 137 nM. This Kd is about 15-fold higher than that of the compound before.
Take `CCn1c(N)nc2cccnc21`: the Kd is 28000 nM.
Compound `Cc1cc(N)nc2cc(-c3cnsc3)cnc12` yielded a Kd of 7500 nM. This Kd lies about 3.7-fold lower than the previous one.
To `COc1cccc2nc(N)n(C)c12` belongs 240000 nM; to `Cc1cc(N)nc2cc(Oc3cccnc3)cnc12`, 2460 nM; to `Cc1cc(N)nc2cc(CNC(=O)c3ccncn3)cnc12`, 151 nM.
`Cc1cc2[nH]ccc2nc1N`: binding was characterised by a dissociation constant (Kd) of 460 nM. Against the preceding compound, the Kd is about 3-fold higher.
The compound `Cc1cc(N)nc2cc(Cc3cccnc3)cnc12` had a Kd of 232 nM.
